Laboratory results reported in US11896583B2, “Tinostamustine for use in treating ovarian cancer” (EURO-CELTIQUE S.A., priority 2017, dated 2024).

Test system: tumour spheroids from primary ovarian cancer tissue
Test: Ovarian cancer spheroid model, ATP assay (CellTiter-Glo) of cell viability / metabolic activity
Protocol: Fresh primary ovarian cancer samples were obtained after informed consent of the individual patient was given. Patients were recruited following clinical diagnosis, and prior to chemotherapy commencing.
Heterotypic tumour spheroids were prepared from the individual primary ovarian cancer tissue. The tumour samples were mechanically and enzymatically digested using an enzyme cocktail (Roche, Penzberg Germany), cell viability determined using the trypan-blue exclusion test, and spheroids seeded at a cell density of 50,000 using a modified liquid overlay method. After 48 h in cell culture under standard conditions, successful spheroid formation was documented photographically before starting treatment.
Each experiment was repeated six times, and both untreated (medium) control and two positive controls (carboplatin+paclitaxel and vorinostat) were used under the same culture conditions. Treatment efficacy, i.e. treatment-induced reduction of the cellular metabolic activity (cell viability) was analyzed using a standard ATP assay.
Once the feasibility study was completed, tumour spheroids consisting of 50,000 cells were prepared from the individual primary ovarian cancer tissue as described above. After 48 h, spheroid formation was documented photographically before starting treatment. […] Treatment efficacy was evaluated using a standard ATP assay, details of which are provided below.
ATP assay test from Promega: CellTiter-Glo®. The CellTiter-Glo® Luminescent Cell Viability Assay is a homogeneous method to determine the number of viable cells in culture based on quantitation of the ATP present, which signals the presence of metabolically active cells. […] The homogeneous assay procedure involves adding a single reagent (CellTiter-Glo® Reagent) directly to cells cultured in serum-supplemented medium.
The homogeneous “add-mix-measure” format results in cell lysis and generation of a luminescent signal proportional to the amount of ATP present.

CC(=O)O[C@H]1C(=O)[C@@]2(C)[C@H]([C@H](OC(=O)c3ccccc3)[C@]3(O)C[C@H](OC(=O)[C@H](O)[C@@H](NC(=O)c4ccccc4)c4ccccc4)C(C)=C1C3(C)C)[C@]1(OC(C)=O)CO[C@@H]1C[C@@H]2O [paclitaxel, reference compound]
metabolic activity (ATP assay) (FIG. 6, patient #5295, 72 h): negligible efficacy

O=C(CCCCCCC(=O)Nc1ccccc1)NO [vorinostat, reference compound]
metabolic activity (ATP assay) (FIG. 6, patient #5295, 72 h): negligible efficacy

Cn1c(CCCCCCC(=O)NO)nc2cc(N(CCCl)CCCl)ccc21 [EDO-S101, 7-(5-(bis(2-chloroethyl)amino)-1-methyl-1H-benzo[d]imidazol-2-yl)-N-hydroxyheptanamide]
reduction in cell viability to (FIG. 1, patient #5284, 5 μM, after 48 h): 50%
reduction in cell viability (compared to the untreated control) (FIG. 1, patient #5284, 7.5 μM): ~80%
reduction in cell viability (compared to the untreated control) (FIG. 1, patient #5284, 10 μM): ~80%
cell viability compared to control untreated spheroids (FIG. 1, patient #5284, 2.5-10 μM): A reduction in cell viability was observed
reduction in cell viability compared with carboplatin+paclitaxel (FIG. 1, patient #5284, 5, 7.5 and 10 μM, after 48 h): greater than that in spheroids treated with carboplatin+paclitaxel after 48 h
reduction in cell viability compared with carboplatin+paclitaxel (FIG. 1, patient #5284, 5, 7.5 and 10 μM, after 72 h): comparable after 72 h
reduction in cell viability compared with vorinostat (FIG. 1, patient #5284, 5, 7.5 and 10 μM, all time points): greater than that in spheroids treated with vorinostat at all time points
time dependence of cell viability (FIG. 1, patient #5284, higher concentrations): did not decrease in a time dependent manner
time dependence of cell viability (FIG. 1, patient #5284, lower concentrations, 48 h to 96 h): decreased in a time dependent manner
efficacy compared with positive controls (FIG. 2, patient #5285, feasibility study): better than both carboplatin+paclitaxel or vorinostat
reduction in cell viability, combination therapy (FIG. 4, n=8, EDO-S101 5 μM, carboplatin 110 μM, paclitaxel 1.79 μM, 72 h): median reduction in cell viability comparable to carboplatin+paclitaxel, but with enhanced average potency across the experimental group
effect of adding EDO-S101 to other treatments (FIG. 6, patient #5295, 72 h): further reduced metabolic activity when used in combination with carboplatin, paclitaxel and carboplatin+paclitaxel
efficacy compared with carboplatin (FIG. 6, patient #5295, 72 h): comparable to that of carboplatin
metabolic activity (ATP assay) (FIG. 6, patient #5295, 72 h): shows a reduction in metabolic activity compared to the negative control
effect of adding EDO-S101 to other treatments (FIG. 7, patient #5296, 72 h): enhanced efficacy when in combination with carboplatin, paclitaxel and carboplatin+paclitaxel
metabolic activity (ATP assay) (FIG. 7, patient #5296, 72 h): enhanced reduction in metabolic activity compared to vorinostat, carboplatin or paclitaxel
metabolic activity (ATP assay) (FIG. 8, patient #5310, 72 h, samples from ovary and omentum): effective in treating ovarian cancer from the omentum
metabolic activity (ATP assay) (FIG. 9, patient #5311, 72 h): comparable efficacy to that observed in spheroids treated with vorinostat
metabolic activity (ATP assay) (FIG. 10, patient #5329, 72 h): comparable or improved activity compared to vorinostat and carboplatin as monotherapies
